The text below walks through data of patent US11945806B2, “Stabilization of amyloidogenic immunoglobulin light chains” (The Scripps Research Institute, priority 2019, dated 2024).

The structures appear in SMILES notation.

The test addresses WIL-FL (Homo sapiens, UniProt P01721). Nature of the test: Unlabeled LC Protease Sensitivity Assay (proteinase K). In kind it is biochemical. The following applies: small molecule 10 μM, WIL-FL 5 μM, proteinase K 50 nM, 2 hours at 37° C. As for the experimental part: Unlabeled LC Protease Sensitivity Assay. WIL-FL (5 μM) in phosphate-buffered saline (PBS, pH 7.4)+0.02% Pluronic F-127 was incubated with proteinase K (50 nM) with small molecule (10 μM) in 1% DMSO vehicle, or vehicle alone. After 2 hours at 37° C., reactions were quenched with 2 mM phenylmethyl sulfonyl fluoride in methanol and centrifuged at 14,000 rpm for 2 minutes. Remaining WIL-FL was quantified by injecting 10 μL of the supernatant into a Waters Acquity H-Class Bio-UPLC (ultra performance liquid chromatography) instrument equipped with a BEH200 analytical size-exclusion column (1.7 μm, 4.6×150 mm) under isocratic conditions (0.2 mL/min, PBS+1 mM EDTA, 2400 psi backpressure, 15 min), monitoring absorbance at 280 nm. Activity of each compound is given as fold protection from protease=(A_compound−A_vehicle)/(A_no_protease−A_vehicle), where each “A” corresponds to peak integration of the respective treatment.
Consider `CCN(CC)c1ccc2c(C)c(CCOC(=O)NCc3cc(F)cc(C(N)=O)c3)c(=O)oc2c1` [Compound 145, 2-(7-(diethylamino)-4-methyl-2-oxo-2H-chromen-3-yl)ethyl (3-carbamoyl-5-fluorobenzyl)carbamate], for which the “Protection (fold protection of LC from protease)” value is listed as “C (C ≥ 0.6)”. Regarding `CCN(CC)c1ccc2c(C)c(CCOC(=O)NCc3ccc4[nH]ccc4c3)c(=O)oc2c1` [Compound 137, 2-(7-(diethylamino)-4-methyl-2-oxo-2H-chromen-3-yl)ethyl ((1H-indol-5-yl)methyl)carbamate], the “Protection (fold protection of LC from protease)” value was “B (3 ≤ B < 0.6)”. In the case of `CCN(CC)c1ccc2c(C)c(CCN3CC4(CCN(c5nccn6ccnc56)CC4)NC3=O)c(=O)oc2c1` [Compound 223, 3-(2-(7-(diethylamino)-4-methyl-2-oxo-2H-chromen-3-yl)ethyl)-8-(imidazo[1,2-a]pyrazin-8-yl)-1,3,8-triazaspiro[4.5]decan-2-one] it was “C (C ≥ 0.6)”; in that of `CCN(CC)c1ccc2c(C)c(CCNC(=O)CCc3ccccc3)c(=O)oc2c1` [Compound 70, N-(2-(7-(diethylamino)-4-methyl-2-oxo-2H-chromen-3-yl)ethyl)-3-phenylpropanamide], “A (A < 0.3))”.

On to `Cc1cc(=O)oc2cc(C(F)(F)F)ccc12` [Compound 169, 4-methyl-7-(trifluoromethyl)-2H-chromen-2-one], for which the “Protection (fold protection of LC from protease)” value is recorded as “A (A < 0.3))”. Then `C#CCN(CC1CC1)c1ccc2c(C)cc(=O)oc2c1` [Compound 262, 7-((cyclopropylmethyl)(prop-2-yn-1-yl)amino)-4-methyl-2H-chromen-2-one], with “A (A < 0.3))”; and `CCNc1ccc2c(C)cc(=O)oc2c1` [Compound 270, 7-(ethylamino)-4-methyl-2H-chromen-2-one], with “A (A < 0.3))”; and `CCN(CCc1ccccc1)c1ccc2c(C)cc(=O)oc2c1` [Compound 37, 7-(ethyl(phenethyl)amino)-4-methyl-2H-chromen-2-one], with “A (A < 0.3))”. As to `CCN(CC)c1ccc2c(C)c(CCNC(=O)NCc3cccc(CCC(=O)O)c3)c(=O)oc2c1` [Compound 307, 3-(3-((3-(2-(7-(diethylamino)-4-methyl-2-oxo-2H-chromen-3-yl)ethyl)ureido)methyl)phenyl)propanoic acid], the “Protection (fold protection of LC from protease)” value was “B (3 ≤ B < 0.6)”.

As to `CCN(CC)c1ccc2c(C)c(CCOC(=O)NCc3ccco3)c(=O)oc2c1` [Compound 87, 2-(7-(diethylamino)-4-methyl-2-oxo-2H-chromen-3-yl)ethyl (furan-2-ylmethyl)carbamate], the “Protection (fold protection of LC from protease)” value is on record as “B (3 ≤ B < 0.6)”. Regarding `C#CCNc1ccc2c(C)cc(=O)oc2c1` [Compound 249, 4-methyl-7-(prop-2-yn-1-ylamino)-2H-chromen-2-one], the “Protection (fold protection of LC from protease)” value is listed as “A (A < 0.3))”.

In the case of `CCN(CC)c1ccc2c(C)c(CCOC(=O)NCc3cccc(CN(C)C)c3)c(=O)oc2c1` [Compound 135, 2-(7-(diethylamino)-4-methyl-2-oxo-2H-chromen-3-yl)ethyl (3-((dimethylamino)methyl)benzyl)carbamate], the “Protection (fold protection of LC from protease)” value is listed as “C (C ≥ 0.6)”. Then `CCN(CC)c1ccc2c(C)c(CCN3C(=O)NC4(CCN(c5ncc(C#N)cn5)CC4)C3=O)c(=O)oc2c1` [Compound 189, 2-(3-(2-(7-(diethylamino)-4-methyl-2-oxo-2H-chromen-3-yl)ethyl)-2,4-dioxo-1,3,8-triazaspiro[4.5]decan-8-yl)pyrimidine-5-carbonitrile], with “A (A < 0.3))”; and `CCN(CC)c1ccc2c(C)c(CC(=O)NCCc3ccccc3)c(=O)oc2c1` [Compound 55, 2-(7-(diethylamino)-4-methyl-2-oxo-2H-chromen-3-yl)-N-phenethylacetamide], with “A (A < 0.3))”. Regarding `Cc1cc(=O)oc2cc(NCC#N)ccc12` [Compound 269, 2-((4-methyl-2-oxo-2H-chromen-7-yl)amino)acetonitrile], the “Protection (fold protection of LC from protease)” value is “A (A < 0.3))”. Then `CCN(CC)c1ccc2c(O)cc(=O)oc2c1` [Compound 27, 7-(diethylamino)-4-hydroxy-2H-chromen-2-one], with “A (A < 0.3))”. In the case of `CCN(CC)c1ccc2c(C)c(CC(=O)N(C)C)c(=O)oc2c1` [Compound 61, 2-(7-(diethylamino)-4-methyl-2-oxo-2H-chromen-3-yl)-N,N-dimethylacetamide] it was “A (A < 0.3))”. In the case of `CCN(CC)c1ccc2c(C)c(CCOC(=O)N3CC(F)(F)C3)c(=O)oc2c1` [Compound 108, 2-(7-(diethylamino)-4-methyl-2-oxo-2H-chromen-3-yl)ethyl 3,3-difluoroazetidine-1-carboxylate] it was “A (A < 0.3))”; in that of `CCN(CC)c1ccc2c(C)c(CCN3C(=O)NC4(CCN(c5ncnc6[nH]ncc56)CC4)C3=O)c(=O)oc2c1` [Compound 192, 3-(2-(7-(diethylamino)-4-methyl-2-oxo-2H-chromen-3-yl)ethyl)-8-(1H-pyrazolo[3,4-d]pyrimidin-4-yl)-1,3,8-triazaspiro[4.5]decane-2,4-dione], “C (C ≥ 0.6)”. On to `CCN(CC)c1ccc2c(C)c(CCOC(=O)NCc3cccc(-c4ccccc4O)c3)c(=O)oc2c1` [Compound 218, 2-(7-(diethylamino)-4-methyl-2-oxo-2H-chromen-3-yl)ethyl ((2′-hydroxy-[1,1′-biphenyl]-3-yl)methyl)carbamate], for which the “Protection (fold protection of LC from protease)” value is given as “C (C ≥ 0.6)”.

Consider `CCN(CC)c1ccc2c(C)c(CCN3C(=O)CNC3=O)c(=O)oc2c1` [Compound 130, 3-(2-(7-(diethylamino)-4-methyl-2-oxo-2H-chromen-3-yl)ethyl)imidazolidine-2,4-dione], for which the “Protection (fold protection of LC from protease)” value is on record as “B (3 ≤ B < 0.6)”. In the case of `CCCOc1ccc2c(C)cc(=O)oc2c1` [Compound 33, 4-methyl-7-propoxy-2H-chromen-2-one] it was “A (A < 0.3))”; in that of `Cc1c(CN2CCOCC2)c(=O)oc2cc(OC(C)Cc3ccccc3)ccc12` (stereo not drawn) [Compound 184, 4-methyl-3-(morpholinomethyl)-7-((1-phenylpropan-2-yl)oxy)-2H-chromen-2-one], “A (A < 0.3))”; in that of `Cc1cc(=O)oc2cc(C(=O)NCc3ccc4[nH]ccc4c3)ccc12` [Compound 237, N-((1H-indol-5-yl)methyl)-4-methyl-2-oxo-2H-chromene-7-carboxamide], “A (A < 0.3))”. Then `CCN(CC)c1ccc2c(C)c(CCN3C(=O)NC4(CCN(C(=O)c5cnc[nH]5)C4)C3=O)c(=O)oc2c1` (stereo not drawn) [Compound 180, 3-(2-(7-(diethylamino)-4-methyl-2-oxo-2H-chromen-3-yl)ethyl)-7-(1H-imidazole-4-carbonyl)-1,3,7-triazaspiro[4.4]nonane-2,4-dione], with “C (C ≥ 0.6)”; and `CCN(CC)c1ccc2c(C)c(CCOC(=O)NCc3ccn[nH]3)c(=O)oc2c1` [Compound 92, 2-(7-(diethylamino)-4-methyl-2-oxo-2H-chromen-3-yl)ethyl ((1H-pyrazol-5-yl)methyl)carbamate], with “B (3 ≤ B < 0.6)”.

With `CCN(CC)c1ccc2c(C)c(CCN3C(=O)NC4(CCN(C(=O)c5ccc(C(N)=O)cc5)C4)C3=O)c(=O)oc2c1` (stereo not drawn) [Compound 199, 4-(3-(2-(7-(diethylamino)-4-methyl-2-oxo-2H-chromen-3-yl)ethyl)-2,4-dioxo-1,3,7-triazaspiro[4.4]nonane-7-carbonyl)benzamide], the “Protection (fold protection of LC from protease)” value is given as “B (3 ≤ B < 0.6)”.

In the case of `CCN(CC)c1ccc2c(C)c(CCOC(=O)NCc3ccc4cc[nH]c(=O)c4c3)c(=O)oc2c1` [Compound 143, 2-(7-(diethylamino)-4-methyl-2-oxo-2H-chromen-3-yl)ethyl ((1-oxo-1,2-dihydroisoquinolin-7-yl)methyl)carbamate], the “Protection (fold protection of LC from protease)” value was “B (3 ≤ B < 0.6)”. On to `Cc1cc(=O)oc2cc(C(=O)NCc3ccccn3)ccc12` [Compound 226, 4-methyl-2-oxo-N-(pyridin-2-ylmethyl)-2H-chromene-7-carboxamide], for which the “Protection (fold protection of LC from protease)” value is “A (A < 0.3))”.

As for `CCN(CC)c1ccc2c(C)c(CCNC(=O)NCc3cccc(-c4c[nH]cn4)c3)c(=O)oc2c1` [Compound 291, 1-(3-(1H-imidazol-4-yl)benzyl)-3-(2-(7-(diethylamino)-4-methyl-2-oxo-2H-chromen-3-yl)ethyl)urea], the “Protection (fold protection of LC from protease)” value is “C (C ≥ 0.6)”. `CCc1cc(=O)oc2cc(N(CC)CC)ccc12` [Compound 136, 7-(diethylamino)-4-ethyl-2H-chromen-2-one]: the “Protection (fold protection of LC from protease)” value is “A (A < 0.3))”.

Regarding `CCN(CC)c1ccc2c(C)c(CCNC(=O)NCCc3cccnc3)c(=O)oc2c1` [Compound 99, 1-(2-(7-(diethylamino)-4-methyl-2-oxo-2H-chromen-3-yl)ethyl)-3-(2-(pyridin-3-yl)ethyl)urea], the “Protection (fold protection of LC from protease)” value is recorded as “B (3 ≤ B < 0.6)”. `Cc1cc(=O)oc2cc(C(=O)O)ccc12` [Compound 225, 4-methyl-2-oxo-2H-chromene-7-carboxylic acid]: the “Protection (fold protection of LC from protease)” value is given as “A (A < 0.3))”.
